Measurements from publication PMC6234764, “First Insights Into Within Host Translocation of the Bacillus cereus Toxin Cereulide Using a Porcine Model” (Frontiers in Microbiology, 2018).

Key:
[1] = test system: piglets; test: Blood analysis: hematology and clinical chemistry; format: in vivo, pig
Method: A total of four experiments, each including four treated animals and one control pig, was performed to investigate the action of cereulide on piglets after oral intake of cereulide. Pigs were either challenged orally with a single dose (acute trials) or with daily over a period of 7 days (chronic trial) (see Table 1). One hour before cereulide toxin administration blood samples were taken by puncturing the anterior Vena cava and piglets were weighed for calculation of the cereulide concentration (t = 0 h). In the intoxication experiment with 150 μg kg^-1 blood samples were taken 68 h before the experiment to reduce the distress for the animals at the start day of the experiments. Blood-chemical, immunological, and histological analyses of selected organs as well as quantification of cereulide in organs, tissues, urine and feces were carried out as detailed below.
After oral administration of cereulide, piglets were monitored for unusual behavior and examined physically with special respect on rectal body temperature as well as pulse and respiration rate, every 2–3 h. Blood samples were taken from the Vena cava cranialis. Urine and feces were collected during the whole experiment and stored at -80°C. After the experiment pigs were anaesthetized by intramuscular injection of a bolus of ketamine (10 mg kg^-1) and azaperone (1.3 mg kg^-1). When sedation was deep enough cerebrospinal fluid (liquor) was taken by lumbar puncture. Finally, pigs were euthanized by intracardial injection of T61®. Animals were then necropsied and parts of the following organs, tissues or body fluids were taken for SIDA-MS analysis: liver, lung, heart, kidney, brain, spleen, small and large intestine, lymph nodes, gastric as well as intestinal contents, skeletal muscle, and abdominal and subcutaneous fat. Samples of liver, lung, heart, kidney, brain, spleen, small, and large intestine were collected for histological analysis.
One milliliter EDTA-stabilized blood and 3 mL heparin-stabilized blood (worked up to serum) were screened for erythrocyte number, hemoglobin, hematocrit, mean cellular volume (MCV), mean cellular hemoglobin (MCH), mean cellular hemoglobin concentration (MCHC), leukocyte number, mean peroxidase index (MPXI), numbers of monocytes, lymphocytes, eosinophils, basophils, lymphoblasts, juvenile and segmented neutrophils, as well as glucose, urea, creatinine, total protein, aspartate amino transferase (AST), alanine amino transferase (ALT), […] (GLDH), gamma glutamyl transferase (GGT), bile acid, lipase, creatine kinase, sodium, potassium, chloride, calcium, and phosphorus at the central diagnostic unit of the University of Veterinary Medicine Vienna.

[2] = test system: Peripheral blood mononuclear cells (PBMC); test: Flow cytometric analysis of PBMC populations; format: in vivo, pig
Method: Peripheral blood mononuclear cells (PBMC) were isolated from heparin-stabilized blood samples (5–8 mL) using Ficoll-Hypaque (PAA, Austria) density centrifugation as described elsewhere ([Saalmüller et al., 1987]). For flow cytometric (FCM) analysis PMBCs were labeled with monoclonal antibodies as indicated in Supplementary Table S1 and stained with the respective isotype-specific conjugates. For analysis of regulatory T cells, cells were fixed and permeabilized by using Foxp3 Staining Buffer Set (eBioscience) in accordance with the manufacturer‘s instructions or for B cells by a FormSap-F&P permeabilization and fixation protocol as described previously ([Gerner et al., 2008]; [Käser et al., 2008]). Samples were analyzed immediately after the final washing steps. Flow cytometric analyses were performed on a FACSCantoII (BD Bioscience). 50,000 events were collected for each sample. Data were analyzed using FACSDiva software 6.1.3 (BD Bioscience) and FlowJo software 7.6.
Neg a tiv e c ontr ol - - - - Isoty p co ntr ol Ig G2b 1 Anti-Ig G2b-Alexa488 2 - - Isoty pe cont rol Isoty p co ntr ol Ig G 1 Anti-Ig G1-RPE 3 […]
T he lp er ce lls Anti-CD4 (74-12-4; IgG2b) 4 Anti-Ig G2b-Alexa488 2 - - NK ce lls Anti-CD3 (PPT3; IgG1) 5 Anti-Ig G1-RPE 3 […]

[3] = plasma of rabbits, direct intravenous injection; ref Cui et al., 2016; cited from earlier work

CC(C)C[C@H]1OC(=O)[C@H](C(C)C)NC(=O)[C@H](C(C)C)OC(=O)[C@@H](C)NC(=O)[C@@H](CC(C)C)OC(=O)[C@H](C(C)C)NC(=O)[C@H](C(C)C)OC(=O)[C@@H](C)NC(=O)[C@@H](CC(C)C)OC(=O)[C@H](C(C)C)NC(=O)[C@H](C(C)C)OC(=O)[C@@H](C)NC1=O [cereulide]
Influence on blood cell composition and biochemical markers in blood ([1]; acute trials, samples before and after 8 (only 150 μg kg^-1), 24 and 48 h): no significant influence | Creatine kinase (CK) ([1]; daily oral dose 10 μg kg^-1, after 3 days, all treated pigs): increase | AST levels ([1]; daily oral dose 10 μg kg^-1, two out of four treated pigs after 3 and 7 days): elevated | Creatine kinase (CK) levels ([1]; single oral dose 30 μg kg^-1): increased | Creatine kinase (CK) levels ([1]; single oral dose 150 μg kg^-1): increased | Leukocytes ([1]; single oral dose 150 μg kg^-1, all animals): increased levels | Aspartate aminotransferase (AST) ([1]; single oral dose 150 μg kg^-1, three out of four pigs): transient increase | Cell composition of PBMCs in comparison to control pigs ([2]; after oral administration of cereulide): no significant changes | Proportions of blood cell populations ([2]; daily oral dose 10 μg kg^-1 over 7 days): remained stable | Elimination half-life [3]: 10.8 ± 9.1 h
